pIC50: −log10 of the molar value.
Key:
[1] = target: Tyrosine-protein kinase HCK (Homo sapiens, UniProt P08631); experiment: Inhibition of human recombinant HCK (230 to 497) by radiometric scintillation counting analysis
RBL-2H3 = experiment: Antiallergic activity against anti-DNP-IgE sensitized rat RBL-2H3 cells assessed as […] of degranulation by measuring beta-hexosaminidase release using P-nitrophenyl-N-acetyl-D-glucosamide as substrate at 0.2 uM measured after 1 hr by microplate reader relative to control; format: functional
[2] = target: Tyrosine-protein kinase Fyn (Homo sapiens, UniProt P06241); experiment: Inhibition of human recombinant Fyn (218 to end) at 5 nM incubated for 15 mins relative to control
[3] = target: T1, Inhibitor of nuclear factor kappa-B kinase subunit alpha (Homo sapiens) (UniProt O15111); experiment: Inhibition of human full length recombinant IKKalpha at 5 nM by radiometric scintillation counting analysis relative to control
T1 sequence (whole entry): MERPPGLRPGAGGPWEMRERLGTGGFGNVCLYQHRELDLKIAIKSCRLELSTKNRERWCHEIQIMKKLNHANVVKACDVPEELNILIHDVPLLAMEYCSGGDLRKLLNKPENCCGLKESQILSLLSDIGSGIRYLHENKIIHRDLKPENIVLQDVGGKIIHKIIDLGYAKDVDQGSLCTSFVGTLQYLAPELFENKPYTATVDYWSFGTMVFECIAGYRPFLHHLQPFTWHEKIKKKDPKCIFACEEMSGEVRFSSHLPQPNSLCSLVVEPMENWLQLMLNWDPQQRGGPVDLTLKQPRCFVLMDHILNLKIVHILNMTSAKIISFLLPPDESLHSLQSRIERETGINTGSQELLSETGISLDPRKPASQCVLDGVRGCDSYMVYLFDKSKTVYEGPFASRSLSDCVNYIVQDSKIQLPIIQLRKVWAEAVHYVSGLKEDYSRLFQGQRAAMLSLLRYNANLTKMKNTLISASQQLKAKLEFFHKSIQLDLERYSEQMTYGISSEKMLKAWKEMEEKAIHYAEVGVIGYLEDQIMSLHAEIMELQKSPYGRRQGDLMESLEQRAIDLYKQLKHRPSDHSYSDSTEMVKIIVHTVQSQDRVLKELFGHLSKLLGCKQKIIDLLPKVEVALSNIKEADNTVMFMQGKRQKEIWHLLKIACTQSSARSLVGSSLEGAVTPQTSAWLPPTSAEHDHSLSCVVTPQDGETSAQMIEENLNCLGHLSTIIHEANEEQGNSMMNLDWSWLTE

[4] = target: Platelet-derived growth factor receptor alpha (Homo sapiens) (UniProt P16234); experiment: Inhibition of human recombinant PDGFRalpha (550 to end) at 5 nM by radiometric scintillation counting analysis relative to control
[5] = target: Proto-oncogene tyrosine-protein kinase Src (Homo sapiens, UniProt P12931); experiment: Inhibition of human recombinant Src (1-530) at 5 nM by radiometric scintillation counting analysis relative to control
[6] = target: T2, Tyrosine-protein kinase TXK (Homo sapiens) (UniProt P42681); experiment: Inhibition of human recombinant […] (256 to end) at 5 nM by radiometric scintillation counting analysis relative to control
T2 sequence (whole entry): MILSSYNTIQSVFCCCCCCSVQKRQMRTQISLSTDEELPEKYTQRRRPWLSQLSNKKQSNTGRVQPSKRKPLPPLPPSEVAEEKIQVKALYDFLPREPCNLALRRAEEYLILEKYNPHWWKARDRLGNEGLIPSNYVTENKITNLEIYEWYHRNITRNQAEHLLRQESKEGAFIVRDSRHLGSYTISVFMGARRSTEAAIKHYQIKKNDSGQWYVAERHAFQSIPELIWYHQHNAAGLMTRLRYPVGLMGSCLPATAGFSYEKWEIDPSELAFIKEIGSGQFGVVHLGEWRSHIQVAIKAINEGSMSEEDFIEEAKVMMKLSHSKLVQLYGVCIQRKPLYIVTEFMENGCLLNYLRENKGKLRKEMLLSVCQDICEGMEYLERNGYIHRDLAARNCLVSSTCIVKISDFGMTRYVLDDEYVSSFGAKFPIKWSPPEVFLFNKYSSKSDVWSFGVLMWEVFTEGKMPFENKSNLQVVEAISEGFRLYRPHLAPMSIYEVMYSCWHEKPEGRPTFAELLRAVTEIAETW

[7] = target: Tyrosine-protein kinase Fgr (Homo sapiens, UniProt P09769); experiment: Inhibition of human recombinant FGR (456 to 770) at 50 nM by radiometric scintillation counting analysis relative to control
[8] = target: Tyrosine-protein kinase Srms (Homo sapiens, UniProt Q9H3Y6); experiment: Inhibition of human SRMS at 50 nM by radiometric scintillation counting analysis relative to control
[9] = target: Tyrosine-protein kinase SYK (Homo sapiens) (UniProt P43405); experiment: Inhibition of human full length recombinant Syk at 50 nM by radiometric scintillation counting analysis relative to control
[10] = target: T3, Tyrosine-protein kinase Yes (Homo sapiens, UniProt P07947); experiment: Inhibition of human full length recombinant Yes at 50 nM by radiometric scintillation counting analysis relative to control
[11] = target: T2, Tyrosine-protein kinase TXK (Homo sapiens); experiment: Inhibition of human recombinant Txk (256 to end) at 500 nM by radiometric scintillation counting analysis relative to control
[12] = target: T3, Tyrosine-protein kinase Yes; experiment: Inhibition of human full length recombinant Yes at 500 nM by radiometric scintillation counting analysis relative to control
[13] = target: Tyrosine-protein kinase Blk (Homo sapiens, UniProt P51451); experiment: Inhibition of human full length recombinant BLK by radiometric scintillation counting analysis
[14] = target: Cytoplasmic tyrosine-protein kinase BMX (Homo sapiens, UniProt P51813); experiment: Inhibition of human full length recombinant Bmx by radiometric scintillation counting analysis
TXK = TXK (Homo sapiens, UniProt P42681); experiment: Inhibition of human recombinant Txk (256 to end) by radiometric scintillation counting analysis
[15] = target: Tyrosine-protein kinase ABL1 (Homo sapiens, UniProt P00519); experiment: Inhibition of human recombinant ABL1 using ATP/Ulight-TK peptide incubated for 15 mins
[16] = target: T3, Tyrosine-protein kinase Yes; experiment: Inhibition of human full length recombinant Yes at 5 nM by radiometric scintillation counting analysis relative to control

Tyrosine-protein kinase Fgr, sequence (P09769 2-529 limits assumed): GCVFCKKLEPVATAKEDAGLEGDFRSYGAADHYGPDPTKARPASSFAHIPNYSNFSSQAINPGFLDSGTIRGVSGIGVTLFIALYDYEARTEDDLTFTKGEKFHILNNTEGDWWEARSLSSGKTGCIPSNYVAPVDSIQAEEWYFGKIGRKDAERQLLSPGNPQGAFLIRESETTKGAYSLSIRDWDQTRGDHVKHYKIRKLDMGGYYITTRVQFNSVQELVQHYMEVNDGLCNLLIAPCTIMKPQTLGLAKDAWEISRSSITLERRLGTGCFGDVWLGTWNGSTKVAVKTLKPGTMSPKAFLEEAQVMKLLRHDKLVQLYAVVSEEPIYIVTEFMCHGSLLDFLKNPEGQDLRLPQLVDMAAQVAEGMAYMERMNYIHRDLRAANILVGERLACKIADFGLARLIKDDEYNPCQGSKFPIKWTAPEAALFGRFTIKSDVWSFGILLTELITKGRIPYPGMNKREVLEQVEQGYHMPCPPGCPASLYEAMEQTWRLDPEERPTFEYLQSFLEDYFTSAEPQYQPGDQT
Tyrosine-protein kinase Fyn, sequence (P06241 2-537 limits assumed): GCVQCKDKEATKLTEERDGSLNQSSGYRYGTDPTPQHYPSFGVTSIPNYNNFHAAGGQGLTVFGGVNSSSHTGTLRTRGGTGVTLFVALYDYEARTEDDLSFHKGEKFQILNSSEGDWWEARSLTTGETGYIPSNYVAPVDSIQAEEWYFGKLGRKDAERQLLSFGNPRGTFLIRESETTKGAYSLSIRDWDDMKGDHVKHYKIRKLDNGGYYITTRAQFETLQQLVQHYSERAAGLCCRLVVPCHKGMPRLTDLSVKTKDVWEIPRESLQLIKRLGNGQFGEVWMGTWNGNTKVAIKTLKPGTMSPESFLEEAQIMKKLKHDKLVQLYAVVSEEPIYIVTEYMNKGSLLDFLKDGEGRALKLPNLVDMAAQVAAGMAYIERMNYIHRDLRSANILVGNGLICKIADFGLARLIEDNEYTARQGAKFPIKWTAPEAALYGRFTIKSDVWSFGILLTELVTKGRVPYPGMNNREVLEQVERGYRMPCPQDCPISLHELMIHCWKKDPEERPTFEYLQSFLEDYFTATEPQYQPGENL
T3 sequence (P07947 2-543 limits assumed): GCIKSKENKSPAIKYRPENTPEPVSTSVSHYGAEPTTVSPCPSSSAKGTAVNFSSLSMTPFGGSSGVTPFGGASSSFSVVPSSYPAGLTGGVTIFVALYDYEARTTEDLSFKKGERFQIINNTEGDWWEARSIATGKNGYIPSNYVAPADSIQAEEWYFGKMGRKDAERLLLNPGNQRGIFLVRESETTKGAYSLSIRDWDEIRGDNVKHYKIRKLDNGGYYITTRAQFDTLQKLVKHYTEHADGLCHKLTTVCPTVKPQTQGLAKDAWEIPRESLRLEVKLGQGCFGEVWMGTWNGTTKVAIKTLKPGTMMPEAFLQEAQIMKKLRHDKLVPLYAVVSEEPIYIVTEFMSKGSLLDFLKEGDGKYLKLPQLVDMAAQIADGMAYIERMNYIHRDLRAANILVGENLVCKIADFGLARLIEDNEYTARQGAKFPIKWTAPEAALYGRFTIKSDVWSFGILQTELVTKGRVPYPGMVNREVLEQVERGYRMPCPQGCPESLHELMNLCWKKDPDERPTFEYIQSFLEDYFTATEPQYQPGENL
Platelet-derived growth factor receptor alpha (Homo sapiens), sequence (P16234 whole entry): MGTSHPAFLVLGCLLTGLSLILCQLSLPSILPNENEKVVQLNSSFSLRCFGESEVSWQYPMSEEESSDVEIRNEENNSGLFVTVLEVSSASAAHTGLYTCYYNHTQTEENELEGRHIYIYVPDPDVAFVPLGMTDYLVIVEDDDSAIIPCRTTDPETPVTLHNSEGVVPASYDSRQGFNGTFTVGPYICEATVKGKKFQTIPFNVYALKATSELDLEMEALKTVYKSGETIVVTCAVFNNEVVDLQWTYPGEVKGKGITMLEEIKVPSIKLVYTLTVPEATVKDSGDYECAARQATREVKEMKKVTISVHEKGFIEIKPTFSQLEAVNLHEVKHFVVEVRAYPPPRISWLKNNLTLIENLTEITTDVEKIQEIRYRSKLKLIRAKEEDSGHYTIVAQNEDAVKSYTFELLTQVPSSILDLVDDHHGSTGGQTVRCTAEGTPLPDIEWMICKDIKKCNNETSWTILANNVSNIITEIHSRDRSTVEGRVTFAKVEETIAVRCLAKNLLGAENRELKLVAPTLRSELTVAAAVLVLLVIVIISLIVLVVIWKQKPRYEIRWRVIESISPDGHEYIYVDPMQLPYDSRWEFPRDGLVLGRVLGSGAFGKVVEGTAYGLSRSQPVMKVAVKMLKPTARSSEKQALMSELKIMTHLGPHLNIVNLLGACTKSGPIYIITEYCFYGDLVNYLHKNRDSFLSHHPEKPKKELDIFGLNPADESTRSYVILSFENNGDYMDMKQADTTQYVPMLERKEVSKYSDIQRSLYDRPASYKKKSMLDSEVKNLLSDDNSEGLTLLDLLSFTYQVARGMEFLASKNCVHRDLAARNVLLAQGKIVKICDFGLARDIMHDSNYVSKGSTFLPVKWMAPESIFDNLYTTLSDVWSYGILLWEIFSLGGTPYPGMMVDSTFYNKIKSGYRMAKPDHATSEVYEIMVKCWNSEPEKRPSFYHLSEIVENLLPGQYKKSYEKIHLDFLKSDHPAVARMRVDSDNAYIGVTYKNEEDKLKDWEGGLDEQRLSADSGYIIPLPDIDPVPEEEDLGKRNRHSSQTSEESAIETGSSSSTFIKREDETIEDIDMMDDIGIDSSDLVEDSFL
Tyrosine-protein kinase Srms, sequence (Q9H3Y6 whole entry): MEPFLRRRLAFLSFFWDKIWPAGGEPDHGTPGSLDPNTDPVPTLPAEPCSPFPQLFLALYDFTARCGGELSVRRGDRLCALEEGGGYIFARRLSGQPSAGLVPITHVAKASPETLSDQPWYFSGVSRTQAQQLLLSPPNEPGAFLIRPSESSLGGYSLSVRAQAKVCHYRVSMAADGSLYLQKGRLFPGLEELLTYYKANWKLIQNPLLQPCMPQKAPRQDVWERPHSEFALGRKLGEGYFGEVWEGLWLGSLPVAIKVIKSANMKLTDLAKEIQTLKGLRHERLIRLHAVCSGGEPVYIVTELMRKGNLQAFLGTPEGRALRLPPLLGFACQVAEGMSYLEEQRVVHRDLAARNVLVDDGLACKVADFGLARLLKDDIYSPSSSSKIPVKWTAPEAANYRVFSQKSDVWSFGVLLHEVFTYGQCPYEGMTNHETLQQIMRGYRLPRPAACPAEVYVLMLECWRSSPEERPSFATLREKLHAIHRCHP
Proto-oncogene tyrosine-protein kinase Src, sequence (P12931 2-536 limits assumed): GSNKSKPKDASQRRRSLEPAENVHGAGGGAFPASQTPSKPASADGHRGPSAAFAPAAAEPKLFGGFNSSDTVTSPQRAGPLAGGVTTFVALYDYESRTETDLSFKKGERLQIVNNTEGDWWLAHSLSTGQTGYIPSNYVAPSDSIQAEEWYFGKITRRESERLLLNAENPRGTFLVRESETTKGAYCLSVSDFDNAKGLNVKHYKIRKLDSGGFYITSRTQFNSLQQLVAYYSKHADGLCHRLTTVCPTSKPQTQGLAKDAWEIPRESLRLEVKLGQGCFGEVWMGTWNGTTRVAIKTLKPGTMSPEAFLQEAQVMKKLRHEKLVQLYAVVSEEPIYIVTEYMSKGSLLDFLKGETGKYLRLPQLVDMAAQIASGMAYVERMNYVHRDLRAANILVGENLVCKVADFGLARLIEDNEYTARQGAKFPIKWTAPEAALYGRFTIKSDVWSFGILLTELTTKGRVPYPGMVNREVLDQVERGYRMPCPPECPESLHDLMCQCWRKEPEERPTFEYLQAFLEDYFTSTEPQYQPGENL
Tyrosine-protein kinase HCK, sequence (P08631 whole entry): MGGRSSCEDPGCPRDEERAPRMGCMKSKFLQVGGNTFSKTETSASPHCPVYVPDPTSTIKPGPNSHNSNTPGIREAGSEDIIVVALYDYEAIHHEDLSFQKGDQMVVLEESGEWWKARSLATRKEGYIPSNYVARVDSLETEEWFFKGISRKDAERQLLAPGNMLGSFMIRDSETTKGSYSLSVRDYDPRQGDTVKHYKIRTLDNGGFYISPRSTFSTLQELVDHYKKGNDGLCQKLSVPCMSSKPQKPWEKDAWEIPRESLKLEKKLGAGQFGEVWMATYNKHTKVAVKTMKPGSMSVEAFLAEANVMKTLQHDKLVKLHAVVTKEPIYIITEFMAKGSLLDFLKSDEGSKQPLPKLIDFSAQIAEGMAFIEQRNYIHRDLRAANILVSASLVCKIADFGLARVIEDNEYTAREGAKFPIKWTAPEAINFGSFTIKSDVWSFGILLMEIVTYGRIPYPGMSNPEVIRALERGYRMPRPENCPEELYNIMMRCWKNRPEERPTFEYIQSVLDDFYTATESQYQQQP
Cytoplasmic tyrosine-protein kinase BMX, sequence (P51813 whole entry): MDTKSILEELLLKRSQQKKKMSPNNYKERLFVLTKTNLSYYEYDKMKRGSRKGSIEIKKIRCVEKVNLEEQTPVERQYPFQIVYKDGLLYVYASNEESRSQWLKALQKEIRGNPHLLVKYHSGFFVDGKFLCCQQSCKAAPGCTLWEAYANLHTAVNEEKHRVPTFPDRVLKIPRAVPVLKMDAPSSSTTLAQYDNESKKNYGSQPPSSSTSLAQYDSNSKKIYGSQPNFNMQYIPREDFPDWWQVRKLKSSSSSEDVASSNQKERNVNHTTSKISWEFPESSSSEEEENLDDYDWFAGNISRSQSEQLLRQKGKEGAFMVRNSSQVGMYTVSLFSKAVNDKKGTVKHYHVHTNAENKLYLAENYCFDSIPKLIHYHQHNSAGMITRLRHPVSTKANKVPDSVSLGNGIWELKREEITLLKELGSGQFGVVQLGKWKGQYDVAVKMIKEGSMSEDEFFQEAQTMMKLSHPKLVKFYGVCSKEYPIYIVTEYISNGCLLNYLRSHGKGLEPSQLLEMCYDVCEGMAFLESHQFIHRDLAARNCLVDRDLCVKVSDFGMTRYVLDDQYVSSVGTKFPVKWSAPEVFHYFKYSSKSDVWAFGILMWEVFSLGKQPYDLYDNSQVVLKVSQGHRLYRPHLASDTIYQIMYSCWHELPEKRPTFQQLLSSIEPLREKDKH

inhibition [2] [%]	inhibition [4] [%]	inhibition [5] [%]	inhibition [6] [%]	inhibition [7] [%]	inhibition [8] [%]	inhibition [10] [%]	inhibition [11] [%]	inhibition [12] [%]	inhibition [16] [%]	Compound	pIC50 [1]	inhibition at 0.2 µM (RBL-2H3) [%]	inhibition [3] [%]	inhibition [9] [%]	pIC50 [13]	pIC50 [14]	pIC50 (TXK)	pIC50 [15]
21	7	71	12	34	22	39	42	94	0	Cc1ccc(C(=O)Nc2ccc(OC(F)(F)F)cc2)cc1C#Cc1cc(-c2cnn(C)c2)cnc1N		122						
2	-6	4	2	20	19	18	-1	39	-7	Cc1ccc(C(=O)Nc2ccc(Cl)cc2Cl)cc1C#Cc1cc(-c2cnn(C)c2)cnc1N	7.24		6	-3	< 6.00	< 6.00	< 6.00	8.15

Compound	inhibition [2] [%]	inhibition [4] [%]	inhibition [5] [%]	inhibition [6] [%]	inhibition [7] [%]	inhibition [8] [%]	inhibition [10] [%]	inhibition [11] [%]	inhibition [12] [%]	inhibition [16] [%]	pIC50 [1]	inhibition at 0.2 µM (RBL-2H3) [%]	inhibition [3] [%]	inhibition [9] [%]	pIC50 [13]	pIC50 [14]	pIC50 (TXK)	pIC50 [15]
Cc1ccc(C(=O)Nc2cc(C(F)(F)F)cc(C(F)(F)F)c2)cc1C#Cc1cc(-c2cnn(C)c2)cnc1N	29	1	-10	17	71	51	14	86	98		8.05	162	9	-1	7.25	6.90	6.73	7.66

— ChEMBL document CHEMBL4837249, “Discovery of Potent Antiallergic Agents Based on an o-Aminopyridinyl Alkynyl Scaffold” (J Med Chem, 2021)
